Values of other authors, collected in US8309607B2, “Rapid release irbesartan-containing pharmaceutical composition” (ratiopharm GmbH, priority 2006, dated 2012).

Conditions: in vivo

SMILES: CCCCC1=NC2(CCCC2)C(=O)N1Cc1ccc(-c2ccccc2-c2nnn[nH]2)cc1 [Irbesartan, 2-n-butyl-4-spirocyclopentane-1-[(2′-(tetrazol-5-yl)biphenyl-4-yl)methyl]-2-imidazolin-5-one]
- oral bioavailability: acceptable oral bioavailability
